Test results reported in ChEMBL document CHEMBL1201862, “PubChem BioAssay data set” (2004).
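Following 48 hours of exposure in 96-well plates, responses at five concentrations were used to interpolate endpoints linearly. GI50 = concentration required for 50% inhibition of growth.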 Calls of active or inactive are those of the source. No stated cut-off is given here; in the data, active = GI50 up to about 1.1 µM and inactive = higher.

What was measured:
Experiment in all cases: DTP human tumour cell line panel, 48 h
HT-29 = test system: HT-29
SNB-19 = test system: SNB-19
M19-MEL = test system: M19-MEL
SK-OV-3 = test system: SK-OV-3
OVCAR-3 = test system: OVCAR-3
COLO 205 = test system: COLO 205
OVCAR-4 = test system: OVCAR-4
OVCAR-8 = test system: OVCAR-8
UACC-62 = test system: UACC-62
HOP-62 = test system: HOP-62
IGROV-1 = test system: IGROV-1
KM12 = test system: KM12
786-0 = test system: 786-0
SK-MEL-5 = test system: SK-MEL-5
RPMI-8226 = test system: RPMI-8226
NCI-H23 = test system: NCI-H23
SR = test system: SR
M14 = test system: M14

Measured: GI50

CCOC(=O)/C(ON)=C(/CC/C(C(=O)OC)=C(\ON)C(=O)OCC)C(=O)OC
inactive: HT-29 > 100 µM | SNB-19 > 100 µM | M19-MEL > 100 µM | SK-OV-3 > 100 µM | OVCAR-3 > 100 µM | COLO 205 > 100 µM | OVCAR-4 > 100 µM | OVCAR-8 > 100 µM | UACC-62 > 100 µM | HOP-62 > 100 µM | IGROV-1 > 100 µM | KM12 > 100 µM | 786-0 > 100 µM | SK-MEL-5 > 100 µM | RPMI-8226 > 100 µM | NCI-H23 > 100 µM | SR > 100 µM | M14 > 100 µM

ClC/C=C/COC1CCCCO1 (configuration not stated)
inactive: HT-29 > 100 µM | SNB-19 > 100 µM | M19-MEL > 100 µM | SK-OV-3 > 100 µM | OVCAR-3 > 100 µM | COLO 205 94.6 µM | OVCAR-4 > 100 µM | OVCAR-8 57.5 µM | UACC-62 84.1 µM | HOP-62 > 100 µM | IGROV-1 > 100 µM | KM12 > 100 µM | 786-0 > 100 µM | SK-MEL-5 > 100 µM | RPMI-8226 54.2 µM | NCI-H23 > 100 µM | SR 18.2 µM | M14 > 100 µM

Cc1cc2c(cc1C)[n+]([O-])c(C(=O)C/C(=N/NC(=S)NN)C(=O)Nc1cccc(C(F)(F)F)c1)c[n+]2[O-]
inactive: HT-29 > 100 µM | SNB-19 34 µM | M19-MEL > 100 µM | SK-OV-3 > 100 µM | OVCAR-3 > 100 µM | COLO 205 > 100 µM | OVCAR-4 > 100 µM | OVCAR-8 > 100 µM | UACC-62 > 100 µM | HOP-62 > 100 µM | IGROV-1 > 100 µM | KM12 > 100 µM | 786-0 > 100 µM | SK-MEL-5 > 100 µM | RPMI-8226 > 100 µM | NCI-H23 > 100 µM | SR 65.6 µM | M14 > 100 µM

O=C1C(Cl)C(c2cc(Br)cc(Br)c2O)N1n1cnc2ccccc2c1=O (configuration not stated)
inactive: HT-29 36.1 µM | SNB-19 30.3 µM | M19-MEL 16.7 µM | SK-OV-3 13.6 µM | OVCAR-3 22.3 µM | COLO 205 29.2 µM | OVCAR-4 9.55 µM | OVCAR-8 24.7 µM | UACC-62 19.2 µM | HOP-62 24.3 µM | IGROV-1 23.4 µM | KM12 25.1 µM | 786-0 26.2 µM | SK-MEL-5 18.8 µM | RPMI-8226 12.6 µM | NCI-H23 23.8 µM | SR 7.76 µM | M14 18.3 µM
